The target in assay [1] is T1, Alpha-2A adrenergic receptor (Bos taurus, UniProt Q28838).
T1 sequence (Q28838 whole entry): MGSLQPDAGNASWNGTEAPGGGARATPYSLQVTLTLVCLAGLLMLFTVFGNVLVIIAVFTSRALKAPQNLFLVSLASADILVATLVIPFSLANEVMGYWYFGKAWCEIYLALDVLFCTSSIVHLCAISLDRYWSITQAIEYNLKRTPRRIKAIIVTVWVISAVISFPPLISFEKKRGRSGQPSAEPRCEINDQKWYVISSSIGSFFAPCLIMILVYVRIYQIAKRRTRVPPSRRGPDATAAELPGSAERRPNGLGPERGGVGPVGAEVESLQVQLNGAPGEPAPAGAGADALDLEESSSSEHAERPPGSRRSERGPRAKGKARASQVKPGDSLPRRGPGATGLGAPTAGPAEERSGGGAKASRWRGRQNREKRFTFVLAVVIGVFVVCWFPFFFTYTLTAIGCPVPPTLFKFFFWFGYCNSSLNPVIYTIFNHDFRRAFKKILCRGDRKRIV

For assay [2], the target named is T2, Alpha-2A adrenergic receptor (Sus scrofa, UniProt P18871).
T2 sequence (P18871 whole entry): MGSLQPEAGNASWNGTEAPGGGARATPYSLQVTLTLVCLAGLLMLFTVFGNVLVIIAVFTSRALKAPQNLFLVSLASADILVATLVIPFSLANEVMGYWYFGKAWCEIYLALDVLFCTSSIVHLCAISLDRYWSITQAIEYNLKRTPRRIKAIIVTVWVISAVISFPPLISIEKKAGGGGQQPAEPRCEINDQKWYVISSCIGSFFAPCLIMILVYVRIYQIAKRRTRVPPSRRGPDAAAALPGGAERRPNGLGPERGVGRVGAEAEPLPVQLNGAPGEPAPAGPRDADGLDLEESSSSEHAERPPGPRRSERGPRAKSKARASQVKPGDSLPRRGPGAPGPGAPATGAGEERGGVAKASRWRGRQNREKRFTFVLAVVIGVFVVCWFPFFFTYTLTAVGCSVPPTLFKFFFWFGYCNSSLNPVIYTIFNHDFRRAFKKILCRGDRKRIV

Assay [3] deals with T3, Alpha-2A adrenergic receptor [16-465] (Rattus norvegicus, UniProt P22909).
T3 construct: 16-465
T3 sequence (P22909 whole entry): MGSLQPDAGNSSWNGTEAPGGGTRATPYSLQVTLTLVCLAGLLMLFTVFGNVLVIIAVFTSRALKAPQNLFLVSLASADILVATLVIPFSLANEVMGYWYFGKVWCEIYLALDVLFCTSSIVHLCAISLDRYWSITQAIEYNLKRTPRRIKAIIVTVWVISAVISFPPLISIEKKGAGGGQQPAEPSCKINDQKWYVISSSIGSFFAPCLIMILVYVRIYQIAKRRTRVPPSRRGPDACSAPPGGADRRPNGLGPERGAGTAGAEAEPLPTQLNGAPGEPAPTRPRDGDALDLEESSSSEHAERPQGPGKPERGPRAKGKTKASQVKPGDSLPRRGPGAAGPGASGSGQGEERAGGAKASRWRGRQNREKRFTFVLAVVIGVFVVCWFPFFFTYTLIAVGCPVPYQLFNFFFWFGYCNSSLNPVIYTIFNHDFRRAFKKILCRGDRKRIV

One may read the Ki as a dissociation constant, usually derived from enzyme kinetics or from competition with a known ligand. Low values mean higher affinity, high ones lower affinity. Regarding `CN(C)CCCN1c2ccccc2Sc2ccc(Cl)cc21` [[3-(2-Chloro-phenothiazin-10-yl)-propyl]-dimethyl-amine(Chlorpromazine)], the inhibition constant (Ki) stood at 0.884 µM in assay [1] and 0.064 µM in assay [2].
With `COC(=O)C1=COC(C)C2CN3CCc4c([nH]c5ccccc45)C3CC12` (centres undefined) [Ajmalicine], the Ki in assay [3] is 0.289 µM; in assay [1], 0.653 µM; in assay [2], 0.01 µM.
With `COc1cc2nc(N3CCN(C(=O)c4ccco4)CC3)nc(N)c2cc1OC` [[3H]-Minipress], the values for the Ki in assay [1] and in assay [2] were 1.37 µM and 1.16 µM, respectively.
In assay [2], `Cc1ccc(N(CC2=NCCN2)c2cccc(O)c2)cc1` [SMR000059054] showed a Ki of 0.00287 µM.
With `Cc1cc(C(C)(C)C)c(O)c(C)c1CC1=NCCN1` [SMR000059324], the Ki in assay [1] is 0.035 µM; in assay [2], 0.00319 µM.
For the molecule `CN1C[C@H](Cn2ccnc2-c2ccccc2)C[C@@H]2c3cccc4[nH]c(Br)c(c34)C[C@H]21` [BAM-1303], the figures for the Ki in assay [3], in assay [1] and in assay [2] were 0.035 µM, 0.149 µM and 0.00052 µM, respectively.
With `COC(=O)C1=CO[C@@H](C)[C@@H]2CN3CCc4c([nH]c5ccccc45)[C@H]3C[C@H]12` [AKUAMMIGINE], the Ki was determined as 1.21 µM in assay [3] and 1.83 µM in assay [1].
For `NCC(O)c1ccc(O)c(O)c1` (stereo not drawn) [Noradrenaline,(+)], the results for the Ki in assay [1] and in assay [2] were 1.09 µM and 0.371 µM, respectively.
Consider `COc1cccc(OC)c1OCCNCC1Oc2ccccc2OC1c1ccccc1` (centres undefined) [NSC_185453], for which the results for the inhibitory constant (Ki) in assay [3], in assay [1] and in assay [2] were 0.046 µM, 0.0132 µM and 0.00095 µM, respectively.
`CC(C)=CCOc1ccc(Cl)c2c1CCN(C)CC2` [SK&F-104078]: the results for the Ki in assay [3], in assay [1] and in assay [2] were 0.248 µM, 0.153 µM and 0.035 µM, respectively.
As for `COc1ccccc1N1CCN(CCC2C(=O)c3ccccc3C(C)(C)C2=O)CC1` (centres undefined) [NSC_122211], the values for the Ki in assay [3], in assay [1] and in assay [2] were 0.749 µM, 0.352 µM and 0.365 µM, respectively.
`O=C1NCN(c2ccccc2)C12CCN(CC1COc3ccccc3O1)CC2` (centres undefined) [8-(2,3-Dihydro-benzo[1,4]dioxin-2-ylmethyl)-1-phenyl-1,3,8-triaza-spiro[4.5]decan-4-one]: the Ki in assay [3] was determined as 0.07 µM; in assay [1] it was 0.0105 µM; in assay [2], 0.00336 µM.

For the origin of these results see BindingDB's records for PubMed 7965790 (University of Nebraska, 1994).
